Where two headings read alike, the source gives them in different places.
How the values were obtained:
[1] = biological target: T1, hROMK (human Kir1.1) (Homo sapiens (Human), UniProt P48048); test: cell-based; conditions: CHO T-Rex hROMK stable cell line; thallium flux; 10-point concentration response curve; read-out: Human ROMK Th Flux IC50
Experimental: Solutions and reagents: Thallium flux assay was performed using FluxOR kit (F10017, Life Technologies). Loading buffer, assay buffer and stimulus buffer were prepared using kit components. HBSS (Hank's balanced salt solution, Cat#14025-092) was purchased separately from Life Technologies.
To prepare 10 ml of loading buffer: 10 μl of FluxOR dye (reconstituted in DMSO) was first added to 100 μl of powerload concentrate and this mix along with 100 μl of Probenicid (100×) was then added to 9.79 ml of HBSS. Assay buffer (10 ml) was prepared by addition of 2 ml of FluxOR chloride free buffer (5×), 100 μl of Probenicid (100×), and 0.2 ml of Ouabain (13.77 mM) to 7.7 ml of deionized water. Stimulus buffer was composed of 15 mM Tl2SO4, 0.75 mM K2SO4 in FluxOR chloride free buffer (diluted to 1× using deionized water). The final concentration of Tl2SO4 and K2SO4 in the assay plate was 3 mM and 0.15 mM, respectively.
Plating and induction of cells: The CHO T-Rex hROMK (human Kir1.1) stable cell line was maintained in Ham's F12 media supplemented with 10% FBS, 1% Penicillin-Streptomycin, 500 μg/ml Zeocin and 10 μg/ml Blasticidin at 37° C. in a 5% CO2 incubator. One day before the experiment, the cells were dissociated by incubation with Versene solution (15040-066, Life Technologies) for 10 minutes at 37° C. followed by addition of growth media. The cell suspension was centrifuged at 1200 rpm for 5 min. After discarding the supernatant, the cells were resuspended in fresh growth media and cell concentration was determined using a hemocytometer. Next, 0.5 μg/ml of Doxycycline was added to the cell suspension to induce hROMK channel expression and 50 μl (10,000 cells/well) of cell suspension was added to each well of a poly-D lysine coated 384 well black, optically clear bottom plate (6007718, Perkin Elmer). The assay plate was kept at 37° C. in a 5% CO2 incubator.
Assay protocol: On the day of experiment, media was removed and loading buffer was added (30 μl/well) to the assay plate. The cells were incubated in the loading buffer for 30 minutes at 37° C. The loading buffer was then replaced by assay buffer (30 μl/well) followed by addition of test compounds or controls. The cells were incubated with compounds for 30 minutes and the plate was then mounted on FlexStation (Molecular Devices) for fluorescence read out with excitation and emission wavelengths at 488 and 525 nm, respectively. Each well was read for 90 sec at 2 sec interval and the stimulus buffer was added after 20 seconds of baseline recording. The final DMSO concentration was either 0.5 or 1% in the assay plate. Positive and negative controls were defined by addition of DMSO or 3 μM of a standard ROMK inhibitor, respectively, to the wells instead of a test compound.
A 10-point concentration response curve was used to estimate the IC50 value of test compounds.

[2] = biological target: T1, hROMK (human Kir1.1); test: cell-based; assay type: cell-based; conditions: whole-cell manual patch clamp, CHO T-Rex hROMK stable cell line, voltage step to -120 mV, Ba2+-subtracted hROMK current; read-out: ROMK EP IC50
[3] = biological target: hERG channels (Homo sapiens (Human), UniProt Q12809); test: hERG Manual Patch Clamp Assay; assay type: cell-based; conditions: human, HEK 293 cells stably expressing hERG channels, pH 7.4, 1 uM, read-out: hERG EP % Inh @ 1 uM
Sequence of hERG channels (Q12809 whole entry): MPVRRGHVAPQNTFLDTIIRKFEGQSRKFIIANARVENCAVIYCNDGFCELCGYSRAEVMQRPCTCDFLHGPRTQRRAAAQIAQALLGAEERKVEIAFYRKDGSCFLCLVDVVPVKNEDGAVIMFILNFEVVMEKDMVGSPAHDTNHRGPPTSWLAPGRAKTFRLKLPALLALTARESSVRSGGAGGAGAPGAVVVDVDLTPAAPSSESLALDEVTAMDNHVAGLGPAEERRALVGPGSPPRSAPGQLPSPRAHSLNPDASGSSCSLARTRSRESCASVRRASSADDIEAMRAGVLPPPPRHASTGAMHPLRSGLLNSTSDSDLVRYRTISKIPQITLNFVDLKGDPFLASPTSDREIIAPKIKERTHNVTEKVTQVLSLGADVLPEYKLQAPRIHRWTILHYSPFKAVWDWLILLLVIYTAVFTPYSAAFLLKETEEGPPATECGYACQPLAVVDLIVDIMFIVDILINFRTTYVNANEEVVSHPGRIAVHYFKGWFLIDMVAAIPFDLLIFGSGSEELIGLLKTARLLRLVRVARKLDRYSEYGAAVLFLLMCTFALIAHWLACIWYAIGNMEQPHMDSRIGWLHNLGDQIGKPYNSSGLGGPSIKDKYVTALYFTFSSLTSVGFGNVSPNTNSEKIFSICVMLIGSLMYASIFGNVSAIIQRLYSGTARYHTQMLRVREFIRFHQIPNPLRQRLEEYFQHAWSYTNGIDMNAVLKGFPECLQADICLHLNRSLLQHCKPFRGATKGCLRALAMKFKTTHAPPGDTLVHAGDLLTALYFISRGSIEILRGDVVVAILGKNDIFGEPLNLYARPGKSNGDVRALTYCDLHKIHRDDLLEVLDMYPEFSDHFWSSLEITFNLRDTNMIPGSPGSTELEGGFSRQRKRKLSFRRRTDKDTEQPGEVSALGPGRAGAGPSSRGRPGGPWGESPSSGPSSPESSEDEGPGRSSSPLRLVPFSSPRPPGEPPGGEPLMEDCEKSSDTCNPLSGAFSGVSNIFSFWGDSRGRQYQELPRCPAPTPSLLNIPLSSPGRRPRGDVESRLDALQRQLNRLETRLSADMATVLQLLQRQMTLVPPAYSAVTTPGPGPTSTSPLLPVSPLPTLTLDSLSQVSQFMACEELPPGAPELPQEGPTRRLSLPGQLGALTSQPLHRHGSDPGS

T1 sequence (P48048 whole entry): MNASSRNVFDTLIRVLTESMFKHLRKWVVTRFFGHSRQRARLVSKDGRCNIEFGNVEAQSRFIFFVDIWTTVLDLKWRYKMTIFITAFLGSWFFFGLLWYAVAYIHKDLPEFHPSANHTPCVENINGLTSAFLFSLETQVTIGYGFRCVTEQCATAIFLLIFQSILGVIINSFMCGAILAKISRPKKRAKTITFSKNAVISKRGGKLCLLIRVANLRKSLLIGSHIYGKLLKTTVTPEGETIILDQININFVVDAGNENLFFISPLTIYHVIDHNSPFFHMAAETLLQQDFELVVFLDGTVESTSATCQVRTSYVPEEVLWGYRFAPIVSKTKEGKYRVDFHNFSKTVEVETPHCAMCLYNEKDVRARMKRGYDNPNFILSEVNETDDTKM

`COc1cc(-n2cnc(CN3CCN[C@H](c4ccc5c(c4C)COC5=O)C3)c2)ncc1C#N` [Example 14-I, (R)-4-methoxy-6-(4-((3-(4-methyl-1-oxo-1,3-dihydroisobenzofuran-5-yl)piperazin-1-yl)methyl)-1H-imidazol-1-yl)nicotinonitrile] gave an IC50 [1] of 36 nM, an IC50 [2] of 51 nM and an inhibition at 1 µM [3] of 1.7%.

`COc1cc(-n2cc(CN3CCN[C@H](c4ccc5c(c4C)COC5=O)C3)cn2)ncc1C#N` [Example 59-I, (R)-4-methoxy-6-(4-((3-(4-methyl-1-oxo-1,3-dihydroisobenzofuran-5-yl)piperazin-1-yl)methyl)-1H-pyrazol-1-yl) nicotinonitrile] was tested, and the IC50 [1] was 20 nM, the IC50 [2] was 4.8 nM and the inhibition at 1 µM [3] was 15%.

In the case of `COc1cc(-n2ncc(CN3C[C@@H](c4ccc5c(c4C)COC5=O)N[C@@H](C)C3)n2)ncc1C#N` [Example 107-I, 4-methoxy-6-(4-(((3S,5R)-3-methyl-5-(4-methyl-1-oxo-1,3-dihydroisobenzofur-an-5-yl)piperazin-1-yl)methyl)-2H-1,2,3-triazol-2-yl)nicotinonitrile], the IC50 [1] is reported as 26 nM, the IC50 [2] is reported as 18 nM and the inhibition at 1 µM [3] is reported as 13%.

`Cc1cn(-c2ccc(CN3CCO[C@H](c4ccc5c(c4C)COC5=O)C3)cn2)cn1` [Example 16-I, (R)-4-methyl-5-(4-((6-(4-methyl-1H-imidazol-1-yl)pyridin-3-yl)methyl)morpholin-2-yl)isobenzofuran-1(3H)-one] gave an IC50 [1] of 33 nM, an IC50 [2] of 11 nM and an inhibition at 1 µM [3] of 7.3%.

In the case of `Cc1ncn(-c2ccc(CN3CCN[C@H](c4ccc5c(c4C)COC5=O)C3)cn2)n1` [Example 67-I, (R)-4-methyl-5-(4-((6-(3-methyl-1H-1,2,4-tri-azol-1-yl)pyridin-3-yl)methyl)piperazin-2-yl) isobenzofuran-1(3H)-one], the IC50 [1] is reported as 110 nM, the IC50 [2] is reported as 29 nM and the inhibition at 1 µM [3] is reported as 7.1%.

With `Cc1ncn(-c2ncc(CN3C[C@@H](c4ccc5c(c4C)COC5=O)N[C@@H](C)C3)cn2)c1C` [Example 94-I, 5-((2R,6S)-4-((2-(4,5-dimethyl-1H-imidazol-1-yl)pyrimidin-5-yl)methyl)-6-methylpiperazin-2-yl)-4-methylisobenzofuran-1(3H)-one] the IC50 [1] was 39 nM, the IC50 [2] was 14 nM and the inhibition at 1 µM [3] was 4.3%.

Work on `COc1nc(-n2cnc(CN3C[C@@H](c4ccc5c(c4C)COC5=O)N[C@@H](C)C3)c2)ncc1C#N` [Example 103-I, 4-methoxy-2-(4-(((3S,5R)-3-methyl-5-(4-methyl-1-oxo-1,3-dihydroisobenzofur-an-5-yl)piperazin-1-yl)methyl)-1H-imidazol-1-yl)pyrimidine-5-carbonitrile] yielded an IC50 [1] of 25 nM, an IC50 [2] of 29 nM and an inhibition at 1 µM [3] of 14%.

Compound `Cc1nc(-n2ncc(CN3C[C@@H](c4ccc5c(c4C)COC5=O)N[C@@H](C)C3)n2)nc(C)c1C#N` [Example 151-I, 4,6-dimethyl-2-(4-(((3S,5R)-3-methyl-5-(4-methyl-1-oxo-1,3-dihydroisobenzofuran-5-yl)piperazin-1-yl)methyl)-2H-1,2,3-triazol-2-yl)pyrimidine-5-carbonitrile] has an IC50 [1] of 43 nM, an IC50 [2] of 64 nM and an inhibition at 1 µM [3] of 5.1%.

Work on `Cc1nc(-n2cc(CN3CCN[C@H](c4ccc5c(c4C)COC5=O)C3)cn2)ncc1C#N` [Example 230-I, (R)-4-methyl-2-(4-((3-(4-methyl-1-oxo-1,3-dihydroisobenzofuran-5-yl)piperazin-1-yl)methyl)-1H-pyrazol-1-yl)pyrimidine-5-carbonitrile] yielded an IC50 [1] of 32 nM, an IC50 [2] of 19 nM and an inhibition at 1 µM [3] of 2.2%.

`COc1cc(-n2ncc(CN3CC(c4ccc5c(c4C)COC5=O)NC(C)(C)C3)n2)ncc1C#N` (single isomer, unassigned) [Example 190-I, 6-(4-((3,3-dimethyl-5-(4-methyl-1-oxo-1,3-dihydroisobenzofuran-5-yl)piperazin-1-yl)methyl)-2H-1,2,3-triazol-2-yl)-4-methoxynicotinonitrile] showed an IC50 [1] of 17 nM, an IC50 [2] of 13 nM and an inhibition at 1 µM [3] of 9.1%.

`COc1cc(-n2cnc(CN3C[C@@H](c4ccc5c(c4C)COC5=O)N[C@@H](C)C3)c2)ccn1` [Example 126-I, 5-((2R,6S)-4-((1-(2-methoxypyridin-4-yl)-1H-imidazol-4-yl)methyl)-6-methylpiperazin-2-yl)-4-methylisobenzofuran-1(3H)-one] showed an IC50 [1] of 34 nM, an IC50 [2] of 17 nM and an inhibition at 1 µM [3] of 7.8%.

With `Cc1nn(-c2ncc(CN3CCN[C@H](c4ccc5c(c4C)COC5=O)C3)cn2)cc1C#N` [Example 221-I, (R)-3-methyl-1-(5-((3-(4-methyl-1-oxo-1,3-dihydroisobenzofuran-5-yl)piperazin-1-yl)methyl)pyrimidin-2-yl)-1H-pyraozle-4-carbonitrile] the IC50 [1] was 22 nM, the IC50 [2] was 13 nM and the inhibition at 1 µM [3] was 5.4%.

`COc1nc(-n2cc(CN3CCN[C@H](c4ccc5c(c4C)COC5=O)C3)nn2)cc(C)c1C#N` [Example 189-I, (R)-2-methoxy-4-methyl-6-(4-((3-(4-methyl-1-oxo-1,3-dihydroisobenzofuran-5-yl)piperazin-1-yl)methyl)-1H-1,2,3-triazol-1-yl)nicotinonitrile] showed an IC50 [1] of 25 nM, an IC50 [2] of 17 nM and an inhibition at 1 µM [3] of 8.9%.

`Cc1cc(-n2cc(CN3C[C@@H](c4ccc5c(c4C)COC5=O)N[C@@H](C)C3)cn2)ncc1C#N` [Example 105-I, 4-methyl-6-(4-(((3S,5R)-3-methyl-5-(4-methyl-1-oxo-1,3-dihydroisobenzofur-an-5-yl)piperazin-1-yl)methyl)-1H-pyrazol-1-yl)nicotinonitrile] showed an IC50 [1] of 26 nM, an IC50 [2] of 11 nM and an inhibition at 1 µM [3] of 9.7%.

`Cc1cc(-c2nnc(CN3CC(c4ccc5c(c4C)COC5=O)NC(C)(C)C3)o2)ncc1C#N` (single isomer, unassigned) [Example 267-I, 6-(5-((3,3-dimethyl-5-(4-methyl-1-oxo-1,3-dihydroisobenzofuran-5-yl)piperazin-1-yl)methyl)-1,3,4-oxadiazol-2-yl)-4-methylnicotinonitrile] gave an IC50 [1] of 16 nM, an IC50 [2] of 17 nM and an inhibition at 1 µM [3] of 9.9%.

Work on `COc1cc(-n2cc(CN3CCN[C@H](c4ccc5c(c4C)COC5=O)C3)nn2)nc(C)c1C#N` [Example 187-I, (R)-4-methoxy-2-methyl-6-(4-((3-(4-methyl-1-oxo-1,3-dihydroisobenzofuran-5-yl)piperaizn-1-yl)methyl)-1H-1,2,3-triazol-1-yl)nicotinonitrile] yielded an IC50 [1] of 43 nM, an IC50 [2] of 25 nM and an inhibition at 1 µM [3] of 11%.

Compound `Cc1nn(-c2ncc(CN3C[C@@H](c4ccc5c(c4C)COC5=O)N[C@@H](C)C3)cn2)cc1C#N` [Example 108-I, 3-methyl-1-(5-(((3S,5R)-3-methyl-5-(4-methyl-1-oxo-1,3-dihydroisobenzofur-an-5-yl)piperazin-1-yl)methyl)pyrimidin-2-yl)-1H-pyrazole-4-carbonitrile] has an IC50 [1] of 30 nM, an IC50 [2] of 21 nM and an inhibition at 1 µM [3] of 8.7%.

`Cc1cc(-c2nc(CN3C[C@@H](c4ccc5c(c4C)COC5=O)N[C@@H](C)C3)co2)ncc1C#N` [Example 130-I] was tested, and the IC50 [1] was 52 nM, the IC50 [2] was 20 nM and the inhibition at 1 µM [3] was 8.4%.

`Cc1cc(-n2nc(C)c(CN3CC(c4ccc5c(c4C)COC5=O)NC(C)(C)C3)n2)ncc1C#N` (single isomer, unassigned) [Example 175-I, 6-(4-((3,3-dimethyl-5-(4-methyl-1-oxo-1,3-dihydroisobenzofuran-5-yl)piperazin-1-yl)methyl)-5-methyl-2H-1,2,3-triazol-2-yl)-4-methylnicotinonitrile] gave an IC50 [1] of 31 nM, an IC50 [2] of 17 nM and an inhibition at 1 µM [3] of 15%.

For `Cc1c([C@@H]2CN(Cc3cnn(-c4ccnc(C(F)F)c4)c3)C[C@H](C)N2)ccc2c1COC2=O` [Example 127-I, 5-((2R,6S)-4-((1-(2-(difluoromethyl)pyridin-4-yl)-1H-pyrazol-4-yl)methyl)-6-methylpiperazin-2-yl)-4-methylisobenzofuran-1(3H)-one], the IC50 [1] was 21 nM, the IC50 [2] was 14 nM and the inhibition at 1 µM [3] was 16%.

`Cc1c([C@@H]2CN(Cc3ccc(-c4ccc(S(C)(=O)=O)nc4)nc3)C[C@H](C)N2)ccc2c1COC2=O` [Example 165-I, 4-methyl-5-((2R,6S)-6-methyl-4-((6′-(methylsulfonyl)-[2,3′-bipyridin]-5-yl)methyl)piperazin-2-yl)isobenzofuran-1(3H)-one] gave an IC50 [1] of 67 nM, an IC50 [2] of 39 nM and an inhibition at 1 µM [3] of 5.4%.

`Cc1ncn(-c2ncc(CN3CCN[C@H](c4ccc5c(c4C)COC5=O)C3)cn2)c1C` [Example 148-I, (R)-5-(4-((2-(4,5-dimethyl-1H-imidazol-1-yl)pyrimidin-5-yl)methyl)piperazin-2-yl)-4-methylisobenzofuran-1(3H)-one] showed an IC50 [1] of 27 nM, an IC50 [2] of 19 nM and an inhibition at 1 µM [3] of 8.8%.

Work on `COc1cc(-n2cc(CN3C[C@@H](c4ccc5c(c4C)COC5=O)N[C@@H](C)C3)cn2)ncn1` [Example 207-I, 5-((2R,6S)-4-((1-(6-methoxypyrimidin-4-yl)-1H-pyrazol-4-yl)methyl)-6-methylpiperazin-2-yl)-4-methylisobenzofuran-1(3H)-one] yielded an IC50 [1] of 53 nM, an IC50 [2] of 18 nM and an inhibition at 1 µM [3] of 10%.

For `Cc1cc(-n2cc(CN3CCO[C@H](c4ccc5c(c4C)COC5=O)C3)cn2)ncc1C#N` [Example 1-I, (R)-4-methyl-6-(4-((2-(4-methyl-1-oxo-1,3-dihydroisobenzofuran-5-yl)morpholino)methyl)-1H-pyrazol-1-yl)nicotinonitrile], the IC50 [1] was 14 nM, the IC50 [2] was 11 nM and the inhibition at 1 µM [3] was 26%.

Reference: US10501449B2 (priority 2018, dated 2019)
